From patent publication US20140045943A1, “Hydroxamic Acid Derivatives, Preparation and Therapeutic Uses Thereof” (Naurex, Inc., priority 2008, published 2014)

Legend:
[1] = tested on: rat retinal cell line, E1A-NR.3; test: 3-aminopropanal neurotoxicity assay, LDH release, retinal cell cultures; assay type: cell-based; details: for % Neuroprotection (600 μM): compound 600 μM, 24-hour incubation with 400 μM 3-aminopropanal in retinal ganglion cells
Experimental: The rat retinal cell line, E1A-NR.3, was grown in DMEM, containing 10% FBS, in 75 cm2 flasks. […] Media was collected and assayed for LDH using the Roche assay kit. Rabbit muscle LDH was used for the standard curve. Drug treatments of aldehyde sequestering agents were as co-treatments or delayed administration of about 0.5 to about 3 hours. All drugs were dissolved in PBS.

Methemoglobin = test: Methemoglobinemia in the rat; assay type: in vivo; details: for Methemoglobin (%): 50 mg/kg, sc, 1 hr
Description: Hydroxylamines are efficacious aldehyde sequestering agents but also may induce methemaglobinemia. Methemoglobinemia is the condition caused by the oxidation of hemoglobin into methemoglobin or a deficiency in the ability of the body to reduce methemoglobin to hemoglobin.
Table 2 sets forth a comparison of the percentage of hemoglobin that is in the form of methemoglobin under control conditions, in the presence of aldehyde sequestering agent, N-enzylhydroxylamine (NBHA) and the hydroxamic acid, AK-10.

Male Sprague Dawley rats = test: Trimethyltin (TMT) model, KCl-evoked glutamate release from hippocampal slices; assay type: in vivo, rat; details: AK-10 25 mg/kg, sc daily for 17 days, starting 24 hours after TMT 8 mg/kg, FIG. 3
Experimental: Male Sprague Dawley rats (200 g; Harlan) were administered […], sc trimethyltin (TMT) and housed individually as a result of the aggressive behavior induced by the neurotoxicant. The day following the TMT treatment, rats were started on a once daily dosing for 17 days with vehicle or AK-10 (25 mg/kg, sc) in PBS. Rats were decapitated on day 19 and the hippocampi isolated and placed in chilled Hanks Balanced Salt Solution containing 20 mM HEPES (HBSS-HEPES, 4° C.) for release experiments.
Chilled tissues were cut into 300 μm slices. A single slice was incubated in 2 ml of HBSS-HEPES in 12-well culture plates at 37° C. for 30 min. The media was discarded and the slice incubated for 2-10 min periods, each with fresh media. Next, the slices were incubated for 5 min after which the media was isolated for amino acid analyses (Pre-sample), followed by a 5 min incubation in which 50 mM KCl was added to evoke neurotransmitter release from the slices (KCl sample). Next, a final 5 min incubation in HBSS-HEPES was collected (Post sample). […]
For the GC-MS analysis of glutamate, an Agilent bench-top GC-MSD (HP6890/MSD5973) system was autotuned (41, 267 and 599) under PCI conditions with methane as the reagent gas. […] The [MH]+ ions that were monitored were 332 and 338 for endogenous GABA and its internal standard, and 490 and 495 for endogenous glutamate and its internal standard. […]

[2] = tested on: rat retinal cell line, E1A-NR.3; details: co-treatments and delayed addition; reference (1); cited from earlier work

Row | Structure (SMILES) | % Neuroprotection (600 μM) [1] [%] | protection of retinal cells from 3-aminopropanal toxicity [2] | also measured
1 | CC(C)CC(N)C(=O)NO (centres unmarked) [AK-10, 2-amino-N-hydroxy-4-methylpentamide] | 100 |  | delay of treatment after 3-AP still giving reduced 24-hour LDH levels ([1]; 300 μM AK-10, delayed co-treatment 0.5 to 3 hours, 400 μM 3-AP, FIG. 2): at least 3 hours; activity in the model of aldehyde-induced cell death ([1]; Table 1, FIG. 1, FIG. 2): most efficacious analog; 24-hour LDH level versus cells exposed to 3-AP alone ([1]; co-treatment, 150 μM, 300 μM and 600 μM AK-10 with 400 μM 3-AP, FIG. 1): significantly reduce; Methemoglobin (%) (Methemoglobin): 2.2 ± 0.3%; methemoglobinemia (Methemoglobin; N-benzylhydroxylamine as positive control): lack of methemoglobinemia; protection in the rat trimethyltin model of CA3 glutamatergic cell death (KCl-evoked glutamate release as index of CA3 neuronal loss) (Male Sprague Dawley rats): prevention of TMT neurotoxicity
2 | CC(=O)NC(CC(C)C)C(=O)NO (centres unmarked) [AK-12, 2-acetoamido-N-hydroxy-4-methylpentamide] | 10 |  | melting point: 47 to 49 °C
3 | CCCC(N)C(=O)NO (centres unmarked) [AK-25, 2-amino-N-hydroxypentamide] | 28 |  | 
4 | CC(C)C(N)CC(=O)NO (centres unmarked) [AK-26, 3-amino-N-hydroxy-4-methylpentamide] | 58 |  | 
5 | CC(N)C(=O)NO (centres unmarked) [AK-27, 2-amino-N-hydroxypropanamide] | 6 |  | 
6 | CCC(N)C(=O)NO (centres unmarked) [AK-28, 2-amino-N-hydroxybutanamide] | 39 |  | 
7 | CCC(C)C(N)C(=O)NO (centres unmarked) [AK-29, 2-amino-N-hydroxy-3-methylpentamide] | 4 |  | 
8 | CC(S)C(=O)NCC(=O)O (centres unmarked) [N-(2-mercaptopropionyl)-glycine] |  | active | 
9 | ONCc1ccccc1 [NBHA, N-benzylhydroxylamine, reference compound] |  | protected retinal cells | Methemoglobin (%) (Methemoglobin): 22.6 ± 3.1%
10 | O=C1O[C@H]([C@@H](O)CO)C(O)=C1O [ascorbic acid, reference compound] |  |  | protection in the rat trimethyltin model of CA3 glutamatergic cell death (KCl-evoked glutamate release as index of CA3 neuronal loss) (Male Sprague Dawley rats): not
11 | ONC1CCCCC1 [cyclohexylhydroxylamine] |  | protected retinal cells | 
12 | CC(C)(C)NO [t-butylhydroxylamine] |  | protected retinal cells | 
